According to patent publication US8188078B2 (Sanofi-Aventis, priority 2007, dated 2012):

Key:
[1] = biological target: T1, c-MET (Homo sapiens, UniProt P08581); assay: Test A: HTRF Met test in 96-well format; type: biochemical
T1 construct: The recombinant DNA His-Tev-MET (956-1390) in pFastBac(Invitrogen); His (N, cleaved yes); Tev (TEV protease site) (N, cleaved yes); made in house; host or cells: SF21 insect cells (baculovirus, pFastBac)
Experimental: I) Expression and Purification of MET, Cytoplasmic Domain
The recombinant DNA His-Tev-MET (956-1390) in pFastBac(Invitrogen) is transfected in insect cells and after several stages of viral amplification, the final stock of baculovirus is tested for expression of the protein of interest.
After infection for 72 h at 27° C. with the recombinant virus, the SF21 cell cultures are harvested by centrifugation and the cellular deposits are stored at −80° C.
The cellular deposits are resuspended in the lysis buffer (buffer A [50 mM HEPES, pH 7.5, 250 mM NaCl, Glycerol 10%, TECP 1 mM]; +cocktail of protease inhibitors Roche Diagnostics without EDTA, ref 1873580), stirred at 4° C. until homogeneous, then lysed mechanically using apparatus of the “Dounce” type.
After centrifugation, the lysis supernatant is incubated for 2 h at 4° C. with Nickel Chelate resin (His-Trap 6 Fast Flow™, GE HealthCare). After washing with 20 volumes of Tp A, the suspension is packed in a column, and the proteins are eluted with a gradient of buffer B ([…]+290 mM imidazole).
The fractions containing the protein of interest with a view to electrophoretic analysis (SDS PAGE) are collected, concentrated by ultrafiltration (cut-off 10 kDa) and injected in an exclusion chromatography column (Superdex™ 200, GE HealthCare) equilibrated with buffer A.
After enzymatic cleavage of the tag Histidine, the protein is reinjected in a new IMAC Nickel Chelate chromatography column (His-Trap 6 Fast Flow™, GE HealthCare) equilibrated with Buffer A. The fractions eluted with a gradient of buffer B and containing the protein of interest after electrophoresis (SDS PAGE), are finally collected and stored at −80° C.
For the production of autophosphorylated protein, the preceding fractions are incubated for 1 h at room temperature after adding ATP 2 mM, MgCl2 2 mM, and Na3VO4 4 mM. After stopping the reaction with 5 mM of EDTA, the reaction mixture is injected in a HiPrep desalting column (GE HealthCare) equilibrated beforehand with buffer A+Na3VO4 4 mM; the fractions containing the protein of interest (SDS PAGE analysis) are collected and stored at −80° C. The degree of phosphorylation is verified by mass spectrometry (LC-MS), and by peptide mapping.
A) HTRF Met test in 96-well format
In a final volume of 50 μl of enzymatic reaction mixture, final c-MET 5 nM is incubated in the presence of the molecule to be tested (for a final concentration range from 0.17 nM to 10 μM, final DMSO 3%) in buffer MOPS 10 mM pH 7.4, DTT 1 mM, Tween 20 0.01%. The reaction is initiated by the substrate solution to obtain the final concentrations of poly-(GAT) 1 μg/ml, ATP 10 μM and MgCl2 5 mM. After incubation for 10 min at room temperature, the reaction is stopped with a mix of 30 μl to obtain a final solution of Hepes 50 mM pH 7.5, potassium fluoride 500 mM, BSA 0.1% and EDTA 133 mM in the presence of 80 ng Streptavidin 61SAXLB Cis-Bio Int. and 18 ng anti-phosphotyrosine Mab PT66-Europium Cryptate per well. After 2 hours of incubation at room temperature, reading is carried out at 2 wavelengths 620 nm and 665 nm in a reader for the TRACE/HTRF technique and the percentage inhibition is calculated according to the 665/620 ratios.

[2] = biological target: T2, MET (Homo sapiens, UniProt P08581); assay: Test C: inhibition of the autophosphorylation of MET, ELISA technique (pppY1230, 1234, 1235), MKN45 cells; type: cell-based
T2 construct: endogenous in cells; host or cells: MKN45 cells
Experimental: C) Inhibition of the Autophosphorylation of MET; ELISA Technique (pppY1230, 1234, 1235)
a) Cellular lysates: Sow the MKN45 cells in a 96-well plate (Cell coat BD polylysine) at 20 000 cells/well under 200 μl of medium RPMI+10% FCS+1% L-glutamine. Leave to adhere to the incubator for 24 h.
The cells are treated on the day after sowing with the products at 6 concentrations in duplicate for 1 h. At least 3 control wells are treated with the same amount of final DMSO.
Dilution of the products: Stock at 10 mM in pure DMSO—range from 10 mM to 30 μM with steps of 3 of pure DMSO—Intermediate dilutions to 1/50 in culture medium then taking of 10 μl added directly to the cells (200 μl): final range from 10000 to 30 nM.
At the end of incubation, carefully remove the supernatant and rinse with 200 μl of PBS. Then put 100 μl of lysis buffer directly in the wells on ice and incubate at 4° C. for 30 minutes. Lysis buffer: 10 mM Tris, HCl pH7.4, 100 mM NaCl, 1 mM EDTA, 1 mM EGTA, 1% Triton X-100, 10% glycerol, 0.1% SDS, 0.5% deoxycholate, 20 mM NaF, 2 mM Na3VO4, 1 mM PMSF and antiprotease cocktail.
The 100 μl of lysates are transferred to a V-bottomed polypropylene plate and ELISA is performed next or the plate is frozen at −80° C.
b) ELISA PhosphoMET BioSource Kit KH00281
In each well of the plate from the kit, add 70 μl of dilution buffer from the kit+30 μL of cell lysate or 30 μl of lysis buffer for the blank. Incubate for 2 h at room temperature, stirring gently.
Rinse the wells 4 times with 400 μl of washing buffer from the kit. Incubate with 100 μl of anti-phospho MET antibodies for 1 h at room temperature.
Rinse the wells 4 times with 400 μl of washing buffer from the kit. Incubate with 100 μl of anti-rabbit HRP antibodies for 30 minutes at room temperature (except for the wells with chromogen only).
Rinse the wells 4 times with 400 μl of washing buffer from the kit. Add 100 μL of chromogen and incubate for 30 minutes in the dark at room temperature.
Stop the reaction with 100 μl of stop solution. Read at once at […] 0.1 second in the Wallac Victor plate reader.
The products of formula (I) as defined above show cellular activity in this test between 10 nM and 10 μM.

[3] = tested on: MKN45 cells; assay: Test D: cellular proliferation by 14C-thymidine pulse, MKN45 cells; type: cell-based; conditions: cell line not stated (HCT116 or MKN45)
Experimental: D) Measurement of Cellular Proliferation by 14C-Thymidine Pulse
The cells are sown in Cytostar 96-well plates under 180 μl for 4 hours at 37° C. and 5% CO2: The HCT116 cells at a rate of 2500 cells per well in DMEM medium+10% foetal calf serum+1% of L-glutamine and the MKN45 cells at a rate of 7500 cells per well in RPMI medium+10% foetal calf serum+1% of L-glutamine. After said incubation for 4 hours, the products are added under 10 μl in 20-times concentrated solution according to the method of dilution stated for ELISA. The products are tested at 10 concentrations in duplicate from 10000 nM to 0.3 nM in steps of 3.
After treatment for 72 h, add 10 μl of 14C-thymidine at 10 μCi/ml to obtain 0.1 μCi per well. The incorporation of 14C-thymidine is measured on a Micro-Beta (Perkin-Elmer) after 24 hours of pulse and 96 h of treatment.
All the stages of the test are automated on the BIOMEK 2000 or TECAN stations.

[4] = Homo sapiens, MKN-45, cellular proliferation by 14C-thymidine pulse

T2 sequence (P08581 25-1390): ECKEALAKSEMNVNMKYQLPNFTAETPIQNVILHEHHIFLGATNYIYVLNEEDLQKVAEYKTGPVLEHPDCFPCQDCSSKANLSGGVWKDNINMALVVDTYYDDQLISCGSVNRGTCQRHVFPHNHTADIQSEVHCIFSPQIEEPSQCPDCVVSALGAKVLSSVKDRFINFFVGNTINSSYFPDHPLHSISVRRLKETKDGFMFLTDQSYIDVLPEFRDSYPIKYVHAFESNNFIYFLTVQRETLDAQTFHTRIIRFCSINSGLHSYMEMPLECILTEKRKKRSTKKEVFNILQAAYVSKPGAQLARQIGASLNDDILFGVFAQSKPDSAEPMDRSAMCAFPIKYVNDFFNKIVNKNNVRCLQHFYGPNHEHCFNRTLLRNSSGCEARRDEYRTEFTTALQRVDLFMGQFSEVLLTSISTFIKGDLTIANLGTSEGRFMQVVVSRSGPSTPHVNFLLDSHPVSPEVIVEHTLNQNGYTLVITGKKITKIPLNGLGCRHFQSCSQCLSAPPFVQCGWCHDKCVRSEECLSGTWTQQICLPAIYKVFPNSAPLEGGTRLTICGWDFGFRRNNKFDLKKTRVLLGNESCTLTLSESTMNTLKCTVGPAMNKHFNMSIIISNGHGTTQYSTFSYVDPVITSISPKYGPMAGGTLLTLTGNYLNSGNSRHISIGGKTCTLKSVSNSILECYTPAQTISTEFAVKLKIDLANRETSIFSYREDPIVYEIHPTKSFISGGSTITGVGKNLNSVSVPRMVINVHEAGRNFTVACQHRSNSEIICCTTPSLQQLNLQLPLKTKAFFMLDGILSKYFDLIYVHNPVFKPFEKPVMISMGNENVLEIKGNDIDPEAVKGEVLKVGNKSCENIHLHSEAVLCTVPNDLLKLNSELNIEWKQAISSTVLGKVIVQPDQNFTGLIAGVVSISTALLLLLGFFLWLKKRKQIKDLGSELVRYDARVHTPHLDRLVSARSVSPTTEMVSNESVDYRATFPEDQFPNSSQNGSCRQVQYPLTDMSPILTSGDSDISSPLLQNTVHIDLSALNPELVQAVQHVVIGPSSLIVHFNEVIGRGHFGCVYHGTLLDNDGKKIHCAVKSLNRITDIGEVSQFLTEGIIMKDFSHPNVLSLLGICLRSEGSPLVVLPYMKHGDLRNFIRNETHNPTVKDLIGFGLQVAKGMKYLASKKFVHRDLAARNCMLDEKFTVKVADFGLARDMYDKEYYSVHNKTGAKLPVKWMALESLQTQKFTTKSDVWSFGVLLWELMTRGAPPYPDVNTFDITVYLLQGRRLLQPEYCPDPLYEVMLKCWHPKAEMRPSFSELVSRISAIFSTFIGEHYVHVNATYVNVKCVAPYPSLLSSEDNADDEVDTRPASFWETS
T1 sequence (P08581 956-1390): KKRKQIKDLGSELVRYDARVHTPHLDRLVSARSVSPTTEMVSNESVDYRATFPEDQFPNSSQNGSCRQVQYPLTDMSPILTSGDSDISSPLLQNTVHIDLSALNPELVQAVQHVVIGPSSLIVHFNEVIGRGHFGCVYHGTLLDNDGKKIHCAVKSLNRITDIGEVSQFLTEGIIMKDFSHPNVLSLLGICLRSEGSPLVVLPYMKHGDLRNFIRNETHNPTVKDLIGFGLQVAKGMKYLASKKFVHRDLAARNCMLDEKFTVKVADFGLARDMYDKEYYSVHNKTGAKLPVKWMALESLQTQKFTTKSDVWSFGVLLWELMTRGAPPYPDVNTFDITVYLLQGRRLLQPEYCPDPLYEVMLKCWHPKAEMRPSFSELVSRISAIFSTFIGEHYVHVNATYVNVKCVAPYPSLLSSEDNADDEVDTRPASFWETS

Structure (SMILES)	IC50 [1] [nM]	IC50 [2] [nM]	IC50 [3, 4] [nM]	melting point [°C]	IC50 ([3]; cellular proliferation by 14C-thymidine pulse) [nM]
O=C(Nc1nc2ccc(OCc3c(Cl)cccc3Cl)cc2s1)C1CC1 [Example 9, N-{6-[(2,6-dichlorobenzyl)oxy]-1,3-benzothiazol-2-yl}cyclopropane carboxamide]	< 100		< 500	178	
Cc1cc(COc2ccc3nc(NC(=O)NCCN4CCOCC4)sc3c2)n(C)n1 [Example 20, 1-{6-[(1,3-dimethyl-1H-pyrazol-5-yl)methoxy]-1,3-benzothiazol-2-yl}-3-(2-morpholin-4-ylethyl)urea]	100 to 10000		> 10000	160	
CC(Oc1ccc2nc(NC(=O)NCCC3CCN(C(=O)OC(C)(C)C)CC3)sc2c1)c1c(Cl)ccc(F)c1Cl (centres unmarked) [Example 38, 1,1-dimethylethyl 4-{2-[({6-[1-(2,6-dichloro-3-fluorophenyl)ethoxy]-1,3-benzothiazol-2-yl}carbamoyl)amino]ethyl}piperidine-1-carboxylate]			> 10000	95 to 105	
CC(Oc1ccc2nc(NC(=O)NCCN3CCOCC3)sc2c1)c1c(Cl)ccc(F)c1Cl (single isomer, unassigned) [Example 26, 1-{6-[(1S*)-(2,6-dichloro-3-fluorophenyl)ethoxy]-1,3-benzothiazol-2-yl}-3-(2-morpholin-4-ylethyl)urea]	100 to 10000	500 to 10000			
CCN(CC)C(CCOC(N)=O)c1nc2cc(F)c(OC(C)c3c(Cl)ccc(F)c3Cl)cc2s1 (centres unmarked) [Example 70, {6-[1-(2,6-dichloro-3-fluorophenyl)ethoxy]-5-fluoro-1,3-benzothiazol-2-yl}3-(diethylamino)propyl carbamate]				188 to 190	
CCN(CC)CCOC(=O)Nc1nc2cc(F)c(OC(C)c3c(Cl)ccc(F)c3Cl)cc2s1 (centres unmarked) [Example 71]	< 100	500 to 10000	500 to 10000		
CC(Oc1ccc2nc(NC(=O)NCCC3CCN(Cc4ccccc4)CC3)sc2c1)c1c(Cl)ccc(F)c1Cl (centres unmarked) [Example 52, 1-[2-(1-benzylpiperidin-4-yl)ethyl]-3-{6-[1-(2,6-dichloro-3-fluorophenyl)ethoxy]-1,3-benzothiazol-2-yl}urea]	< 100	< 500	500 to 10000		
CCN(CC)C(COC(N)=O)c1nc2cc(F)c(OC(C)c3c(Cl)ccc(F)c3Cl)cc2s1 (centres unmarked) [Example 71, {6-[1-(2,6-dichloro-3-fluorophenyl)ethoxy]-5-fluoro-1,3-benzothiazol-2-yl}2-(diethylamino)ethyl carbamate]				184 to 186	
Nc1nc2ccc(OCc3c(F)cccc3F)cc2s1 [Example 12, 6-[(2,6-difluorobenzyl)oxy]-1,3-benzothiazol-2-amine]			> 10000	178	

Next, values leading:

IC50 [1] [nM]	IC50 [2] [nM]	IC50 [3, 4] [nM]	melting point [°C]	IC50 ([3]; cellular proliferation by 14C-thymidine pulse) [nM]	Structure (SMILES)
< 100	500 to 10000	500 to 10000			CC(Oc1cc2sc(NC(=O)NCCNC(=O)OC(C)(C)C)nc2cc1F)c1c(Cl)ccc(F)c1Cl (centres unmarked) [Example 87]
			235 to 240		CC(Oc1ccc2nc(C(COC(N)=O)N3CCOCC3)sc2c1)c1c(Cl)ccc(F)c1Cl (centres unmarked) [Example 74, {6-[1-(2,6-dichloro-3-fluorophenyl)ethoxy]-1,3-benzothiazol-2-yl}2-(morpholin-4-yl)ethyl carbamate]
			230		CC(Oc1cc2sc(NC(=O)NCCCC(C)(C)OC(N)=O)nc2cc1F)c1c(Cl)ccc(F)c1Cl (centres unmarked) [Example 87, {2-[({6-[1-(2,6-dichloro-3-fluorophenyl)ethoxy]-5-fluoro-1,3-benzothiazol-2-yl}carbamoyl)amino]ethyl}2-methylpropan-2-yl carbamate]
			200 to 205		COC(COC(N)=O)c1nc2cc(F)c(OC(C)c3c(Cl)ccc(F)c3Cl)cc2s1 (centres unmarked) [Example 72, {6-[1-(2,6-dichloro-3-fluorophenyl)ethoxy]-5-fluoro-1,3-benzothiazol-2-yl}2-methoxyethyl carbamate]
			151 to 193		CNC(=O)OC(C)(C)CCCNC(=O)Nc1nc2cc(F)c(OC(C)c3c(Cl)ccc(F)c3Cl)cc2s1 (centres unmarked) [Example 95, {2-[({6-[1-(2,6-dichloro-3-fluorophenyl)ethoxy]-5-fluoro-1,3-benzothiazol-2-yl}carbamoyl)amino]ethyl}2-methylpropan-2-yl methylcarbamate]
< 100				500 to 10000	CC(Oc1cc2sc(NC(=O)NCCN)nc2cc1F)c1c(Cl)ccc(F)c1Cl (single isomer, unassigned) [Example 90, 1-(2-aminoethyl)-3-{6-[(1S*)-1-(2,6-dichloro-3-fluorophenyl)ethoxy]-5-fluoro-1,3-benzothiazol-2-yl}urea]
< 100	500 to 10000	500 to 10000			COCCOC(=O)Nc1nc2cc(F)c(OC(C)c3c(Cl)ccc(F)c3Cl)cc2s1 (centres unmarked) [Example 72]
< 100	< 500	< 500			CC(Oc1cc2sc(NC(=O)NC3CC3)nc2cc1F)c1c(Cl)ccc(F)c1Cl (centres unmarked) [Example 131, 1-cyclopropyl-3-{6-[1-(2,6-dichloro-3-fluorophenyl)ethoxy]-5-fluoro-1,3-benzothiazol-2-yl}urea]
